Source: patent publication US7494984B2, “Substituted imidazo[1,2-a]pyrimidines as HIV viral DNA integrase inhibitors” (priority 2005, dated 2009)

What was measured:
[1] = biological target: T1, HIV-integrase (Human immunodeficiency virus type 1 group M subtype B, UniProt P12497); experiment: HIV-Integrase Inhibition Activity (SPA strand transfer assay); format: biochemical; settings: recombinant integrase, biotin labeled substrate DNA on SPA beads, P33 labeled target DNA; read-out: Activity (IC50 class, HIV-integrase inhibition)
T1 construct: Recombinant integrase (0.26 ng) was incubated with the beads
Procedure: HIV-Integrase Inhibition Activity. To evaluate in-vitro activity against HIV-integrase, 5 pmole of biotin labeled substrate DNA was bound to 100 μg of Streptavidin coated PVT SPA beads (Amersham Pharmacia Biotech). Recombinant integrase (0.26 ng) was incubated with the beads for 90 min at 37° C. Unbound enzyme was removed by washing the complex followed by addition of inhibitors and 0.1 fmol of P33 labeled target DNA. The reaction was stopped by adding EDTA to a final concentration of 10 mM. Samples were counted in TopCountNXT (Packard) and the CPM was used as a measure of integration. The reaction condition was as described in A. Engelman and R. Craigie, J. Virol. 69, 5908-5911 (1995). The sequences of substrate and target DNA were described in Nucleic Acid Research 22,1121-1122 (1994). Activity equal to A refers to a compound having IC50=0.005 to 0.010 μM while B and C denote compounds having IC50=0.010 to 0.030 μM and IC50>0.030 μM respectively.

CCCCN1CCn2c1nc(C(=O)NCc1ccc(F)cc1-n1cnc(C)n1)c(O)c2=O [Example 15, N-(4-Fluoro-2-(3-methyl-1H-1,2,4-triazol-1-yl)benzyl)-1-butyl-6-hydroxy-5-oxo-1,2,3,5-tetrahydroimidazo[1,2-a]pyrimidine-7-carboxamide] gave a melting point of 214 °C and an IC50 [1] of 5 to 10 nM.
Work on COCCN1CCn2c1nc(C(=O)NCc1ccc(F)cc1)c(O)c2=O [Example 29, N-(4-Fluorobenzyl)-6-hydroxy-1-(2-methoxyethyl)-5-oxo-1,2,3,5-tetrahydroimidazo[1,2-a]pyrimidine-7-carboxamide] yielded a melting point of 166 °C and an IC50 [1] of 10 to 30 nM.
In the case of CNC(=O)c1cc(F)ccc1CNC(=O)c1nc2n(c(=O)c1O)CCN2Cc1ccccc1 [Example 18, N-(4-Fluoro-2-(methylcarbamoyl)benzyl)-1-benzyl-6-hydroxy-5-oxo-1,2,3,5-tetrahydroimidazo[1,2-a]pyrimidine-7-carboxamide], the melting point is reported as 206 °C (dec.) and the IC50 [1] is reported as 10 to 30 nM.
With O=C(NCc1ccc(F)cc1-n1cncn1)c1nc2n(c(=O)c1O)CCN2Cc1ccccc1 [Example 19, N-(4-Fluoro-2-(1H-1,2,4-triazol-1-yl)benzyl)-1-benzyl-6-hydroxy-5-oxo-1,2,3,5-tetrahydroimidazo[1,2-a]pyrimidine-7-carboxamide] the melting point was 242 °C (dec.) and the IC50 [1] was 10 to 30 nM.
CN1CCn2c1nc(C(=O)NCc1ccc(F)cc1)c(O)c2=O [Example 1, N-(4Fluorobenzyl)-6-hydroxy-1-methyl-5-oxo-1,2,3,5-tetrahydroimidazo[1,2-a]pyrimidine-7-carboxamide] gave a melting point of 212 °C and an IC50 [1] of 10 to 30 nM.
